Data published in patent US20020009421A1, “Therapy following skin injury from exposure to ultraviolet radiation” (priority 2000, published 2002).

Legend:
sunburn = experiment: In Vivo Evaluation: sunburn in a human subject after about six hours of intense sunlight, oral self-administration; details: for relief of pain: oral self-administration, adult with severe sunburn, celecoxib 100 mg
Text: 1. Subject: An adult, person of light complexion whose skin had not been substantially exposed to strong sunlight for approximately six months.
2. Protocol: The subject was exposed to intense sunlight at a swimming pool for approximately six hours.
3. […] At that time the subject self-administered an oral dose of acetaminophen (Extra Strength Tylenol®) to relieve the pain. […] Later in the evening the subject was unable to sleep due to the continued pain. At that time the subject self-administered a 100 mg dose of Celebrex® (celecoxib). […] Approximately twelve hours later the subject took a second dose of celecoxib to relieve the onset of discomfort due to the sunburn.

UV-B mediated injury = details: cited from earlier work
[1] = system: UV radiation-induced tumor formation and UV-B mediated inflammatory response; details: oral administration, cited from earlier work

SMILES | relief of pain (sunburn) | time to almost complete relief of pain following administration (sunburn; 100 mg oral dose of Celebrex, adult with sunburn) [h] | healing of the burn (blistering, peeling of surface skin) (sunburn; two oral doses of celecoxib about twelve hours apart, subject's report) | cutaneous inflammatory response after exposure of skin to UV-B radiation (UV-B mediated injury; oral administration) | parameters of UV-B mediated injury (UV-B mediated injury; topical application) | tumor formation ([1]; animals chronically exposed to UV radiation) | acute UV-B mediated inflammatory response involving increased cell proliferation and edema ([1]; following acute or chronic exposure to UV radiation) | UV-B induced prostaglandin synthesis [1]
CC(=O)Nc1ccc(O)cc1 [acetaminophen] | no relief in pain | – | – | – | – | – | – | –
Cc1ccc(-c2cc(C(F)(F)F)nn2-c2ccc(S(N)(=O)=O)cc2)cc1 [celecoxib, 4-[5-(4-methylphenyl)-3-(trifluoromethyl)-1H-pyrazol-1-yl]benzenesulfonamide] | almost complete relief of pain | ≤ 1 | rapid healing of the burn with no blistering or peeling of surface skin | failed to block the cutaneous inflammatory response | reduce many of the parameters of UV-B mediated injury | reduced tumor formation | failed to inhibit the acute UV-B mediated inflammatory response | block the UV-B induced prostaglandin synthesis
